Test results: US10226440B2, “Oral compositions comprising creatine” (Eddie O'Gorman Ltd, priority 2011, dated 2019)

Test: HPLC creatine levels after storage of other aqueous gels, jellies, suspensions and water controls
Assay type: physicochemical
Details: 10 g in 50 ml water, stored at 4 deg Celsius and room temperature, after one month
Protocol: A spectrophotometric scan of the colloidal creatine (10 mg ml^−1 dissolved in HPLC mobile phase), the CARG (1:15 dilution in HPLC mobile phase) and the HPLC mobile phase was performed to determine the appropriate detection wavelength for the HPLC assay. The scan was performed over a wavelength range from 190-950 nm. It was decided to use 220 nm as the detection wavelength.
Due to the viscous nature of the CARG it had to be diluted by a factor of 10 at the very least before samples could be injected onto the HPLC. In general a dilution factor of 1/15 was used in the analysis of the samples. The variation in peak area over the course of the experiment was not significant and gave a standard deviation of 1351126.18 (approximately equivalent to 0.13 mg ml^−1 creatine), see Tables 1 and 2.
Two aqueous gels, (A) and (B), were created containing colloidal creatine were made by mixing with water and heating to 55 deg Celsius:
This was stored in a 100 ml plastic dispensing container at room temperature. Creatine levels were measured after 3 months using the above HPLC method and found to have decreased by 22% at 4 deg Celsius and only 5% at room temperature.
Another oral product was made using colloidal creatine in standard commercially available jelly beans reconstituted in water. The concentrations of colloidal creatine per ml of reconstituted jelly bean were 0, 20, 50, 100 and 200 mg/ml. […]

In the case of CN(CC(=O)O)C(=N)N [creatine, creatine (2-(methylguanidino)ethanoic acid)], the “loss of creatine content” value is reported as 90%.
